Values of other authors as cited in article PMC7575488, “Phase 1 dose-escalation study of a novel oral PI3K/mTOR dual inhibitor, LY3023414, in patients with cancer” (Investigational New Drugs, 2020).

Conditions: cited from earlier work; for Stomatitis, mucositis, and mouth sores: clinical studies with mTOR inhibitors

Which “Stomatitis, mucositis, and mouth sores” value does the source give for `CO[C@H]1C[C@@H]2CC[C@@H](C)[C@@](O)(O2)C(=O)C(=O)N2CCCC[C@H]2C(=O)O[C@H]([C@H](C)C[C@@H]2CC[C@@H](OP(C)(C)=O)[C@H](OC)C2)CC(=O)[C@H](C)/C=C(\C)[C@@H](O)[C@@H](OC)C(=O)[C@H](C)C[C@H](C)/C=C/C=C/C=C/1C` [deforolimus] here?
The value was 78%.

Which results are given for `CO[C@H]1C[C@@H]2CC[C@@H](C)[C@@](O)(O2)C(=O)C(=O)N2CCCC[C@H]2C(=O)O[C@H]([C@H](C)C[C@@H]2CC[C@@H](OCCO)[C@H](OC)C2)CC(=O)[C@H](C)/C=C(\C)[C@@H](O)[C@@H](OC)C(=O)[C@H](C)C[C@H](C)/C=C/C=C/C=C/1C` [everolimus]?
Incidence of ILD (Japan, ref interim report on surveillance of everolimus-induced ILD in Japan): 17.4%; Stomatitis, mucositis, and mouth sores: 41%
